Tested on: 425362-245-T-J1 tumor spheroids, viability % test/control
Assay: Anticancer human tumor 425362-245-T-J1 patient-derived melanoma cell line growth inhibition
Conditions: spheroids with HUVEC and MSC; for IC50: curve of first compound; for viability, T/C: stronger effect = lower value
In short: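 Single agents and combinations were tested on spheroids built from tumor cells plus HUVEC and hMSC, at half-log dilutions starting at or near clinical Cmax, else 10 microM; final DMSO 0.25% (v/v).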
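Also: spheroids exposed to agents for 7 days.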

CC1COCCN1c1cc(-c2ccnn2C)c2ccnc(-c3ccn[nH]3)c2n1 (stereo not given) + CC[C@@]1(O)C(=O)OCc2c1cc1n(c2=O)Cc2cc3c(CN(C)C)c(O)ccc3nc2-1
IC50 (second compound 0.003 µM): < 31.6 nM
IC50 (second compound 0.00949 µM): < 31.6 nM
IC50 (second compound 0.03 µM): < 31.6 nM
IC50 (second compound 0.0949 µM): < 31.6 nM
IC50 (second compound 0.3 µM): < 31.6 nM
viability, T/C (second compound 0.003 µM, first compound 0.0316 µM): 37.4%
viability, T/C (second compound 0.003 µM, first compound 0.1 µM): 15.3%
viability, T/C (second compound 0.003 µM, first compound 0.316 µM): 6.14%
viability, T/C (second compound 0.003 µM, first compound 1 µM): 6.78%
viability, T/C (second compound 0.003 µM, first compound 3.16 µM): 6.36%
viability, T/C (second compound 0.003 µM, first compound 10 µM): 6.21%
viability, T/C (second compound 0.00949 µM, first compound 0.0316 µM): 14.2%
viability, T/C (second compound 0.00949 µM, first compound 0.1 µM): 6.19%
viability, T/C (second compound 0.00949 µM, first compound 0.316 µM): 4.31%
viability, T/C (second compound 0.00949 µM, first compound 1 µM): 5.51%
viability, T/C (second compound 0.00949 µM, first compound 3.16 µM): 5.57%
viability, T/C (second compound 0.00949 µM, first compound 10 µM): 5.81%
viability, T/C (second compound 0.03 µM, first compound 0.0316 µM): 4.2%
viability, T/C (second compound 0.03 µM, first compound 0.1 µM): 2.9%
viability, T/C (second compound 0.03 µM, first compound 0.316 µM): 3.2%
viability, T/C (second compound 0.03 µM, first compound 1 µM): 4.33%
viability, T/C (second compound 0.03 µM, first compound 3.16 µM): 5.76%
viability, T/C (second compound 0.03 µM, first compound 10 µM): 6.29%
viability, T/C (second compound 0.0949 µM, first compound 0.0316 µM): 2.84%
viability, T/C (second compound 0.0949 µM, first compound 0.1 µM): 1.97%
viability, T/C (second compound 0.0949 µM, first compound 0.316 µM): 2.32%
viability, T/C (second compound 0.0949 µM, first compound 1 µM): 4.06%
viability, T/C (second compound 0.0949 µM, first compound 3.16 µM): 4.81%
viability, T/C (second compound 0.0949 µM, first compound 10 µM): 4.72%
viability, T/C (second compound 0.3 µM, first compound 0.0316 µM): 1.36%
viability, T/C (second compound 0.3 µM, first compound 0.1 µM): 1.31%
viability, T/C (second compound 0.3 µM, first compound 0.316 µM): 1.46%
viability, T/C (second compound 0.3 µM, first compound 1 µM): 1.77%
viability, T/C (second compound 0.3 µM, first compound 3.16 µM): 2.51%
viability, T/C (second compound 0.3 µM, first compound 10 µM): 3.29%

Cc1cc(C)c(CNC(=O)c2cc(-c3ccc(CN4CCOCC4)cc3)cc3c2cnn3C2CCCC2)c(=O)[nH]1 + Cn1nnc2c(C(N)=O)ncn2c1=O
IC50 (second compound 1 µM): 2970 nM
IC50 (second compound 3.16 µM): 3220 nM
IC50 (second compound 10 µM): 4590 nM
IC50 (second compound 31.6 µM): 3070 nM
IC50 (second compound 100 µM): 1470 nM
viability, T/C (second compound 1 µM, first compound 0.0316 µM): 90.2%
viability, T/C (second compound 1 µM, first compound 0.1 µM): 100%
viability, T/C (second compound 1 µM, first compound 0.316 µM): 90.8%
viability, T/C (second compound 1 µM, first compound 1 µM): 80.7%
viability, T/C (second compound 1 µM, first compound 3.16 µM): 48.4%
viability, T/C (second compound 1 µM, first compound 10 µM): 11.2%
viability, T/C (second compound 3.16 µM, first compound 0.0316 µM): 110%
viability, T/C (second compound 3.16 µM, first compound 0.1 µM): 107%
viability, T/C (second compound 3.16 µM, first compound 0.316 µM): 105%
viability, T/C (second compound 3.16 µM, first compound 1 µM): 91.7%
viability, T/C (second compound 3.16 µM, first compound 3.16 µM): 50.5%
viability, T/C (second compound 3.16 µM, first compound 10 µM): 14.6%
viability, T/C (second compound 10 µM, first compound 0.0316 µM): 102%
viability, T/C (second compound 10 µM, first compound 0.1 µM): 106%
viability, T/C (second compound 10 µM, first compound 0.316 µM): 114%
viability, T/C (second compound 10 µM, first compound 1 µM): 85.4%
viability, T/C (second compound 10 µM, first compound 3.16 µM): 69.6%
viability, T/C (second compound 10 µM, first compound 10 µM): 13.1%
viability, T/C (second compound 31.6 µM, first compound 0.0316 µM): 104%
viability, T/C (second compound 31.6 µM, first compound 0.1 µM): 116%
viability, T/C (second compound 31.6 µM, first compound 0.316 µM): 100%
viability, T/C (second compound 31.6 µM, first compound 1 µM): 85.4%
viability, T/C (second compound 31.6 µM, first compound 3.16 µM): 49.3%
viability, T/C (second compound 31.6 µM, first compound 10 µM): 10.9%
viability, T/C (second compound 100 µM, first compound 0.0316 µM): 94.6%
viability, T/C (second compound 100 µM, first compound 0.1 µM): 91.4%
viability, T/C (second compound 100 µM, first compound 0.316 µM): 87.4%
viability, T/C (second compound 100 µM, first compound 1 µM): 59.6%
viability, T/C (second compound 100 µM, first compound 3.16 µM): 28.6%
viability, T/C (second compound 100 µM, first compound 10 µM): 6.56%
